Results on one molecule are retold here after PMC4427186, “Forskolin Suppresses Delayed-Rectifier K^+ Currents and Enhances Spike Frequency-Dependent Adaptation of Sympathetic Neurons” (PLoS ONE, 2015).

The assay has as its target T1, Kv2.1 α subunit (Rattus norvegicus, UniProt P15387).
T1 construct: gene Kcnb1; homomeric channel
T1 sequence (P15387 1-857): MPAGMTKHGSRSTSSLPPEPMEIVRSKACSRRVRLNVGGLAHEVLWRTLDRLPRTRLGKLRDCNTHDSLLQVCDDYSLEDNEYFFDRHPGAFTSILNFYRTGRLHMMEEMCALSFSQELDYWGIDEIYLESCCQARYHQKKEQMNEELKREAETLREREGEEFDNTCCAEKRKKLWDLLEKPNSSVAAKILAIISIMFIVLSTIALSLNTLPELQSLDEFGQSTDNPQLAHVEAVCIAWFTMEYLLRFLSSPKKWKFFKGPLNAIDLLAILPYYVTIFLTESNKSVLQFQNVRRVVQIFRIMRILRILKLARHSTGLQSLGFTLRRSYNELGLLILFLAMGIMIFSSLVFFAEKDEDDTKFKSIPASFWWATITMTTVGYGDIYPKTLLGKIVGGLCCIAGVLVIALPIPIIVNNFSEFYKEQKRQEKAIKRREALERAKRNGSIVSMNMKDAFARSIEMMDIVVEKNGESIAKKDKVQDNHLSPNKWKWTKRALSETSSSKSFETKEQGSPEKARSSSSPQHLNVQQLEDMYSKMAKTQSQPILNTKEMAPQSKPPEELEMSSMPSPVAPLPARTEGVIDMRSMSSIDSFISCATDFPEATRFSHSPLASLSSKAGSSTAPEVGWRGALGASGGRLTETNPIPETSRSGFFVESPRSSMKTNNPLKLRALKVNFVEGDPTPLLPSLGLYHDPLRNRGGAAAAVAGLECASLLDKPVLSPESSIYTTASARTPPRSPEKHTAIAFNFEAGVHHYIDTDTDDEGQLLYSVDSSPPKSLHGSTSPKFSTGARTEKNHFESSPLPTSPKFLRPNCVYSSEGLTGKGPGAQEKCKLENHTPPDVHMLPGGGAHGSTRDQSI
As to the kind of experiment: whole-cell patch clamp, tail current amplitude. Format: cell-based. On the technique in general: The patch-clamp technique gives a direct electrical read-out from membranes.

What is called IC50 is the concentration needed to halve the response being measured.

Regarding `C=C[C@@]1(C)CC(=O)[C@]2(O)[C@@]3(C)[C@@H](O)CCC(C)(C)[C@@H]3[C@H](O)[C@H](OC(C)=O)[C@@]2(C)O1` [forskolin], the midpoint of inhibition, the IC50, lay at 31.6 µM.
